Tests used:
22RV1 cells = test: Cell proliferation / viability (MTT) assay; format: cell-based; conditions: for proliferation of 22RV1 cells: ENZ-resistant 22RV1 cells, FIG. 1
Protocol: Cell viability assay: An MTT assay was performed to evaluate the effect of drugs on cell viability. Ten thousand cells per well were plated in a 96-well plate and treated with drugs the following day. The MTT solution (0.5 mg/ml) was then applied to the cells for 1 h at 37° C. with 5% CO2. Precipitated formazan was dissolved in DMSO and quantified at 570 nm using a microplate reader (Beckman-Coulter). Combination index: The data obtained from the MTT assay were used to calculate cell viability and also used to calculate combination index (CI). The Chou-Talalay method was applied to determine the CI using CompuSyn software (Biosoft).

22RV1-derived xenograft = test: 22RV1-derived mouse xenograft model; format: in vivo; conditions: castrated nude mice, daily for 3 weeks; ENZ 25 mg/kg/day oral gavage, AVA 20 mg/kg/day intraperitoneal
Protocol: All procedures were approved by the Purdue Animal Care and Use Committee. Five-week-old male nude mice (Jackson Laboratory) were purchased for the experiment. […] ENZ stock prepared in DMSO was diluted in corn oil for oral gavage and AVA solution was prepared. Once the tumors reached approximately 50-100 mm^3, the mice were randomly divided into four groups for daily drug administration for 3 weeks: (i) vehicle oral gavage (corn oil)+vehicle intraperitoneal injection (2% tween-80 (v/v) and 3.2 mg/mL 2-hydroxypropyl-β-cyclodextrin in PBS); (ii) ENZ alone (25 mg/kg body weight/day) by oral gavage; (iii) AVA alone (20 mg/kg body weight/day) by intraperitoneal injection; (iv) ENZ (25 mg/kg/day)+AVA (20 mg/kg/day). Tumors were monitored every two days with a caliper and tumor volumes were calculated with the formula V=0.5×L×W^2 (where V is volume, L is length, W is the width). At the end of the study, mice were euthanized and tumor tissues were excised and weighted.

AR signaling = test: qPCR of genes related to AR signaling in 22RV1 cells; format: cell-based; conditions: 20 μM ENZ in presence or absence of 4 μM avasimibe, 24 h
SOAT1 = target: T1, SOAT1 (Homo sapiens, UniProt P35610); conditions: cited from earlier work
T1 sequence (P35610 1-550): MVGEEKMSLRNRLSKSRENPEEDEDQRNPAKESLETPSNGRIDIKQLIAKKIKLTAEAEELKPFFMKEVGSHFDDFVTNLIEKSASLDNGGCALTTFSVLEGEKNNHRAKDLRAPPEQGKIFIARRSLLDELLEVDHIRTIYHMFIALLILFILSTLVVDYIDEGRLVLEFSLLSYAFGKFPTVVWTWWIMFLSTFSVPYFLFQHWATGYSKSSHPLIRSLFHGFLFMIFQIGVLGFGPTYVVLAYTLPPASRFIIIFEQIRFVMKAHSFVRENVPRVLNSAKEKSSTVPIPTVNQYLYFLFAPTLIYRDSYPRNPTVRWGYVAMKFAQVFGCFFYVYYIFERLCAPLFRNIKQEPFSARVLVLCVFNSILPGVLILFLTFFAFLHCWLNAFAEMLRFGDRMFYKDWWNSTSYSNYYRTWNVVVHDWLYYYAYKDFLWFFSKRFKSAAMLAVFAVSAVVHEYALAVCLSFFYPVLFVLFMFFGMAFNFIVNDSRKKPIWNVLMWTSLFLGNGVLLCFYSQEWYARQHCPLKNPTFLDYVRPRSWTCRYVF

[1] = rats, dogs, and humans; cited from earlier work

Structure (SMILES)	proliferation of 22RV1 cells (22RV1 cells)	tumor growth (appearance, average tumor volume, tumor weight) (22RV1-derived xenograft)	AR expression (mRNA) (AR signaling)	AR-V7 expression (mRNA) (AR signaling)	Nkx3.1 expression (mRNA) (AR signaling)	Psa expression (mRNA) (AR signaling)	IC50 (SOAT1) [µM]	safety when administered [1]	proliferation of shRNA-transfected 22RV1 cells (22RV1 cells; shCTRL or shSOAT1 with DMSO or ENZ, FIG. 5B)	IC50 value for SOAT1 relative to the corresponding IC50 value for SOAT2 (SOAT1; SOAT1 vs SOAT2 selectivity)
CC(C)c1cc(C(C)C)c(CC(=O)NS(=O)(=O)Oc2c(C(C)C)cccc2C(C)C)c(C(C)C)c1 [AVA, avasimibe]	slightly suppressed cell proliferation	did not sufficiently delay the tumor growth	did not change	did not change	downregulated	downregulated	24	considered safe		
CNC(=O)c1ccc(N2C(=S)N(c3ccc(C#N)c(C(F)(F)F)c3)C(=O)C2(C)C)cc1F [ENZ, enzalutamide]	resistant	did not sufficiently delay the tumor growth							little effect on the proliferation	
CCOC(=O)OC(=O)OCC [pyrocarbonate, diethyl pyrocarbonate]										at least twice or higher
